Assay results reported in patent publication US9617256B2 (priority 2007, dated 2017).
In brackets after ≈: the same amount, converted by molar mass.

Columns and labels:
AECO001 HSA AGP = experiment: MIC broth microdilution, AECO001 HSA AGP; assay type: cell-based, E. coli; conditions: Escherichia coli
Summary of the method: (§1)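 MICs come from broth microdilution in cation-adjusted Mueller-Hinton broth, final inoculum 3×10^5–7×10^5 CFU/mL, 18-24 hours at 35° C. Levofloxacin and QC strains served as assay controls.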

AECO001 (ATCC25922) = experiment: MIC broth microdilution, AECO001; assay type: cell-based, E. coli; conditions: Escherichia coli, ATCC25922, read-out: MIC AECO001
Summary of the method: as §1

[1] = test system: AABA1060 (clinical isolate of Acinetobacter baumannii); experiment: MIC broth microdilution, AABA1060; assay type: cell-based; conditions: Acinetobacter baumannii, read-out: MIC AABA1060
Summary of the method: as §1

[2] = test system: ASAU001 (laboratory strain of S. aureus, ATCC29213); experiment: MIC broth microdilution, ASAU001; assay type: cell-based; conditions: Staphylococcus aureus, ATCC29213, read-out: MIC ASAU001
Summary of the method: as §1

APAE001 (ATCC27853) = experiment: MIC broth microdilution, APAE001; assay type: cell-based, P. aeruginosa; conditions: Pseudomonas aeruginosa, ATCC27853, read-out: MIC APAE001, APAE001 is ATCC27853
Summary of the method: as §1

[3] = test system: APAE006 in the presence of 8 micrograms per milliliter of polymyxin B nonapeptide; assay type: cell-based, P. aeruginosa; conditions: in the presence of 8 micrograms per milliliter of polymyxin B nonapeptide
Summary of the method: (§2)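 Growth inhibition was scored by CLSI broth microdilution using cation-adjusted Mueller-Hinton broth and a final inoculum between 3×10^5 and 7×10^5 CFU/mL, incubated 18-24 hours at 35° C.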

[4] = test system: AECO063 (ATCC25922 bearing an acrAB mutation); experiment: microbe, parasite or virus in culture; assay type: cell-based, E. coli; conditions: Escherichia coli, ATCC25922, read-out: MIC AECO063
Summary of the method: as §1

[5] = test system: APAE006 (strain of P. aeruginosa in which all efflux pumps are inactivated); experiment: microbe, parasite or virus in culture; assay type: cell-based; conditions: Pseudomonas aeruginosa, read-out: MIC APAE006, P. aeruginosa, all efflux pumps inactivated
Summary of the method: as §2

Row | SMILES | MIC (AECO001 HSA AGP) [µg/mL] | MIC (AECO001 (ATCC25922)) [µg/mL] | MIC [1] [µg/mL] | MIC [2] [µg/mL] | MIC (APAE001 (ATCC27853)) [µg/mL] | MIC APAE006 + PMBN [3] | MIC [4] [µg/mL] | MIC [5] [µg/mL]
1 | CC(C)[C@H](NC(=O)c1ccc(/C=C/C#Cc2ccc(CN3CCOCC3)cc2)cc1)C(=O)NO [Example 110-2] | 2 to 16 (≈ 4.33 to 34.7 µM) | < 2 | 2 to 16 (≈ 4.33 to 34.7 µM) | > 64 | 2 to 16 (≈ 4.33 to 34.7 µM) | A (MIC's of 2.0 μg/mL or less = A) | < 2 | < 2
2 | C[C@@H](N)[C@H](NC(=O)c1ccc(C#Cc2ccc(CN3CCN(C)CC3)cc2)cc1)C(=O)NO [Example 115-4] | 16 to 64 (≈ 35.6 to 142 µM) | 2 to 16 (≈ 4.45 to 35.6 µM) | 16 to 64 (≈ 35.6 to 142 µM) | > 64 | < 2 | A (MIC's of 2.0 μg/mL or less = A) | < 2 | < 2
3 | C[C@H](O)[C@H](NC(=O)c1ccc(/C=C/C#Cc2ccc(CNC3CC3)cc2)cc1)C(=O)NO [Example 113-4] | 2 to 16 (≈ 4.61 to 36.9 µM) | < 2 | 2 to 16 (≈ 4.61 to 36.9 µM) | > 64 | 2 to 16 (≈ 4.61 to 36.9 µM) | A (MIC's of 2.0 μg/mL or less = A) | < 2 | < 2
4 | C[C@@H](N)[C@H](NC(=O)c1ccc(C#C/C=C/c2ccccc2)cc1)C(=O)NO [Example 104-4] | 2 to 16 (≈ 5.5 to 44 µM) | < 2 | 2 to 16 (≈ 5.5 to 44 µM) | 16 to 64 (≈ 44 to 176 µM) | < 2 | A (MIC's of 2.0 μg/mL or less = A) | < 2 | < 2
5 | O=C(N[C@H](C(=O)NO)c1cccs1)c1ccc(C#Cc2ccc(CN3CCOCC3)cc2)cc1 [Example 67-7] | 2 to 16 (≈ 4.21 to 33.6 µM) | < 2 | 2 to 16 (≈ 4.21 to 33.6 µM) | > 64 | 2 to 16 (≈ 4.21 to 33.6 µM) | A (MIC's of 2.0 μg/mL or less = A) | < 2 | < 2
6 | C[C@@H](O)[C@H](NC(=O)c1ccc(C#Cc2ccc(C(F)(F)F)nc2)cc1)C(=O)NO [Example 133-10] | 2 to 16 (≈ 4.91 to 39.3 µM) | 2 to 16 (≈ 4.91 to 39.3 µM) | 16 to 64 (≈ 39.3 to 157 µM) | 16 to 64 (≈ 39.3 to 157 µM) | 16 to 64 (≈ 39.3 to 157 µM) | A (MIC's of 2.0 μg/mL or less = A) | < 2 | < 2
7 | C[C@H](O)[C@H](NC(=O)c1ccc(C#C/C=C/c2ccc(CNC3CC3)cc2)cc1)C(=O)NO [Example 102-4] | 2 to 16 (≈ 4.61 to 36.9 µM) | < 2 | 16 to 64 (≈ 36.9 to 148 µM) | > 64 | 2 to 16 (≈ 4.61 to 36.9 µM) | A (MIC's of 2.0 μg/mL or less = A) | < 2 | < 2
8 | CN(C)CC(=O)NC[C@H](NC(=O)c1ccc(/C=C/C#Cc2ccc(CN3CCOCC3)cc2)cc1)C(=O)NO [Example 111-2] | 2 to 16 (≈ 3.75 to 30 µM) | 2 to 16 (≈ 3.75 to 30 µM) | 2 to 16 (≈ 3.75 to 30 µM) | 16 to 64 (≈ 30 to 120 µM) | 2 to 16 (≈ 3.75 to 30 µM) | A (MIC's of 2.0 μg/mL or less = A) | < 2 | < 2
9 | C[C@@H](N)[C@H](NC(=O)c1ccc(C#Cc2ccc(CNCC(F)F)cc2)cc1)C(=O)NO [Example 119-1, N-((1S,2R)-2-Amino-1-hydroxycarbamoyl-propyl)-4-{4-[(2,2-difluoro-ethylamino)-methyl]-phenylethynyl}-benzamide] | 2 to 16 (≈ 4.65 to 37.2 µM) | < 2 | 2 to 16 (≈ 4.65 to 37.2 µM) | 16 to 64 (≈ 37.2 to 149 µM) | < 2 | A (MIC's of 2.0 μg/mL or less = A) | < 2 | < 2
10 | CC(C)(O)[C@H](NC(=O)c1ccc(C#C/C=C/c2ccc(CO)cc2)cc1)C(=O)NO [Example 101-5] | 2 to 16 (≈ 4.9 to 39.2 µM) | < 2 | < 2 | 16 to 64 (≈ 39.2 to 157 µM) | < 2 | A (MIC's of 2.0 μg/mL or less = A) | < 2 | < 2
11 | C[C@@H](N)[C@H](NC(=O)c1ccc(/C=C/C#Cc2ccccc2)cc1)C(=O)NO [Example 114-1, N-((1S,2R)-2-Amino-1-hydroxycarbamoyl-propyl)-4-((E)-4-phenyl-but-1-en-3-ynyl)-benzamide] | 2 to 16 (≈ 5.5 to 44 µM) | < 2 | < 2 | 2 to 16 (≈ 5.5 to 44 µM) | < 2 | A (MIC's of 2.0 μg/mL or less = A) | < 2 | < 2
12 | O=C(N[C@H](C(=O)NO)c1ccsc1)c1ccc(C#Cc2ccc(CN3CCOCC3)cc2)cc1 [Example 67-8] | 2 to 16 (≈ 4.21 to 33.6 µM) | < 2 | 2 to 16 (≈ 4.21 to 33.6 µM) | > 64 | 2 to 16 (≈ 4.21 to 33.6 µM) | A (MIC's of 2.0 μg/mL or less = A) | < 2 | < 2
13 | CC(C)(O)[C@H](NC(=O)c1ccc(C#CC#Cc2ccc(CO)cc2)cc1)C(=O)NO [Example 82-15] | 16 to 64 (≈ 39.4 to 157 µM) | < 2 | < 2 | 16 to 64 (≈ 39.4 to 157 µM) | < 2 | A (MIC's of 2.0 μg/mL or less = A) | < 2 | < 2
14 | C[C@@H](N)[C@H](NC(=O)c1ccc(C#Cc2ccc(CN3CCC(O)C3)cc2)cc1)C(=O)NO (stereo partly shown) [Example 115-6] | 2 to 16 (≈ 4.58 to 36.7 µM) | 2 to 16 (≈ 4.58 to 36.7 µM) | 16 to 64 (≈ 36.7 to 147 µM) | > 64 | < 2 | A (MIC's of 2.0 μg/mL or less = A) | < 2 | < 2
15 | O=C(N[C@@H](Cn1cncn1)C(=O)NO)c1ccc(/C=C/C#Cc2ccc(CN3CCOCC3)cc2)cc1 [Example 110-10] | 2 to 16 (≈ 4 to 32 µM) | < 2 | 16 to 64 (≈ 32 to 128 µM) | 16 to 64 (≈ 32 to 128 µM) | 2 to 16 (≈ 4 to 32 µM) | A (MIC's of 2.0 μg/mL or less = A) | < 2 | < 2
16 | C[C@H](NCC(=O)NC[C@H](NC(=O)c1ccc(C#Cc2ccccc2)cc1)C(=O)NO)c1ccccc1 [Example 132-4] | 2 to 16 (≈ 4.13 to 33 µM) | < 2 | 2 to 16 (≈ 4.13 to 33 µM) | 16 to 64 (≈ 33 to 132 µM) | 2 to 16 (≈ 4.13 to 33 µM) | A (MIC's of 2.0 μg/mL or less = A) | < 2 | < 2
17 | C[C@@H](N)[C@H](NC(=O)c1ccc(C#CC#Cc2ccc(CN3CCOCC3)cc2)cc1)C(=O)NO [Example 86-2] | < 2 | < 2 | 2 to 16 (≈ 4.34 to 34.7 µM) | 16 to 64 (≈ 34.7 to 139 µM) | 2 to 16 (≈ 4.34 to 34.7 µM) | A (MIC's of 2.0 μg/mL or less = A) | < 2 | < 2
18 | C[C@@H](N)[C@H](NC(=O)c1ccc(C#Cc2ccc(CN3CCCOCC3)cc2)cc1)C(=O)NO [Example 118-7] | 2 to 16 (≈ 4.44 to 35.5 µM) | < 2 | 2 to 16 (≈ 4.44 to 35.5 µM) | 16 to 64 (≈ 35.5 to 142 µM) | < 2 | A (MIC's of 2.0 μg/mL or less = A) | < 2 | < 2
19 | O=C(NC(C(=O)NO)C(F)(F)F)c1ccc(/C=C/C#Cc2ccc(CN3CCOCC3)cc2)cc1 (stereo not shown) [Example 110-12] | < 2 | < 2 | < 2 | 16 to 64 (≈ 32.8 to 131 µM) | 2 to 16 (≈ 4.1 to 32.8 µM) | A (MIC's of 2.0 μg/mL or less = A) | < 2 | < 2
20 | C[C@@H](N)[C@H](NC(=O)c1ccc(/C=C/C#Cc2ccc(Cl)cc2)cc1)C(=O)NO [Example 114-10] | 2 to 16 (≈ 5.03 to 40.2 µM) | < 2 | 2 to 16 (≈ 5.03 to 40.2 µM) | 16 to 64 (≈ 40.2 to 161 µM) | 2 to 16 (≈ 5.03 to 40.2 µM) | A (MIC's of 2.0 μg/mL or less = A) | < 2 | < 2
